PubChem BioAssay AID1963977 (Molecular Pharmacology Branch, DTP, NCI, 2024)
pIC50: −log10 of the molar value.

System: 624824-186-R-J3-PDC multicell spheroids, viability
Experiment: Anticancer human tumor 624824-186-R-J3-PDC patient-derived colon adenocarcinoma cell line growth inhibition [PI3K]
Conditions: for viability, T/C: stronger effect = lower value
How it was run: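 Tumor cells were combined with HUVEC and MSCs into spheroids, then dosed with PI3K-inhibitor combinations over half-log ranges capped near clinical Cmax or 10 microM.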
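Note: spheroids exposed to agents for seven days before luminescence read.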
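Throughout, for viability, T/C: luminescent signal used as a stand-in for spheroid viability; percent viability relative to DMSO vehicle control wells taken as 100%.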

**Q.** `Cn1cnc2c(F)c(Nc3ccc(Br)cc3Cl)c(C(=O)NOCCO)cc21` + Cc1nc(NC(=O)N2CCCC2C(N)=O)sc1-c1ccnc(C(C)(C)C(F)(F)F)c1 was tested. Which pIC50 (curve of first compound, second compound 0.0316 µM) did it give?
**A.** 5.72

**Q.** What about the pIC50 (curve of first compound, second compound 0.1 µM) of the same compound?
**A.** 6.05

**Q.** And the pIC50 (curve of first compound, second compound 0.316 µM)?
**A.** 6.29

**Q.** And the pIC50 (curve of first compound, second compound 1 µM)?
**A.** 6.68

**Q.** And the pIC50 (curve of first compound, second compound 3.16 µM)?
**A.** 7.32

**Q.** What about the pIC50 (curve of first compound, second compound 10 µM) of the same compound?
**A.** 7.83

**Q.** What about the viability, T/C (second compound 0.0316 µM, first compound 0.00949 µM) of the same compound?
**A.** 116%

**Q.** What about the viability, T/C (second compound 0.0316 µM, first compound 0.03 µM) of the same compound?
**A.** 104%

**Q.** What about the viability, T/C (second compound 0.0316 µM, first compound 0.0949 µM) of the same compound?
**A.** 89%

**Q.** And the viability, T/C (second compound 0.0316 µM, first compound 0.3 µM)?
**A.** 82.1%

**Q.** And the viability, T/C (second compound 0.0316 µM, first compound 0.949 µM)?
**A.** 62.8%

**Q.** What about the viability, T/C (second compound 0.0316 µM, first compound 3 µM) of the same compound?
**A.** 40.5%

**Q.** What about the viability, T/C (second compound 0.1 µM, first compound 0.00949 µM) of the same compound?
**A.** 105%

**Q.** And the viability, T/C (second compound 0.1 µM, first compound 0.03 µM)?
**A.** 98.1%

**Q.** What about the viability, T/C (second compound 0.1 µM, first compound 0.0949 µM) of the same compound?
**A.** 94.6%

**Q.** And the viability, T/C (second compound 0.1 µM, first compound 0.3 µM)?
**A.** 68%

**Q.** And the viability, T/C (second compound 0.1 µM, first compound 0.949 µM)?
**A.** 50.9%

**Q.** And the viability, T/C (second compound 0.1 µM, first compound 3 µM)?
**A.** 31.6%

**Q.** What about the viability, T/C (second compound 0.316 µM, first compound 0.00949 µM) of the same compound?
**A.** 114%

**Q.** And the viability, T/C (second compound 0.316 µM, first compound 0.03 µM)?
**A.** 98.2%

**Q.** And the viability, T/C (second compound 0.316 µM, first compound 0.0949 µM)?
**A.** 85.5%

**Q.** What about the viability, T/C (second compound 0.316 µM, first compound 0.3 µM) of the same compound?
**A.** 59.9%

**Q.** What about the viability, T/C (second compound 0.316 µM, first compound 0.949 µM) of the same compound?
**A.** 37.7%

**Q.** What about the viability, T/C (second compound 0.316 µM, first compound 3 µM) of the same compound?
**A.** 22.4%

**Q.** What about the viability, T/C (second compound 1 µM, first compound 0.00949 µM) of the same compound?
**A.** 97.3%

**Q.** And the viability, T/C (second compound 1 µM, first compound 0.03 µM)?
**A.** 91.5%

**Q.** What about the viability, T/C (second compound 1 µM, first compound 0.0949 µM) of the same compound?
**A.** 67.7%

**Q.** What about the viability, T/C (second compound 1 µM, first compound 0.3 µM) of the same compound?
**A.** 40.1%

**Q.** And the viability, T/C (second compound 1 µM, first compound 0.949 µM)?
**A.** 24.9%

**Q.** And the viability, T/C (second compound 1 µM, first compound 3 µM)?
**A.** 12.5%

**Q.** What about the viability, T/C (second compound 3.16 µM, first compound 0.00949 µM) of the same compound?
**A.** 73.8%

**Q.** What about the viability, T/C (second compound 3.16 µM, first compound 0.03 µM) of the same compound?
**A.** 60.4%

**Q.** And the viability, T/C (second compound 3.16 µM, first compound 0.0949 µM)?
**A.** 36.2%

**Q.** What about the viability, T/C (second compound 3.16 µM, first compound 0.3 µM) of the same compound?
**A.** 22.6%

**Q.** What about the viability, T/C (second compound 3.16 µM, first compound 0.949 µM) of the same compound?
**A.** 17.3%

**Q.** And the viability, T/C (second compound 3.16 µM, first compound 3 µM)?
**A.** 6.56%

**Q.** And the viability, T/C (second compound 10 µM, first compound 0.00949 µM)?
**A.** 56%

**Q.** And the viability, T/C (second compound 10 µM, first compound 0.03 µM)?
**A.** 42.2%

**Q.** And the viability, T/C (second compound 10 µM, first compound 0.0949 µM)?
**A.** 21.4%

**Q.** And the viability, T/C (second compound 10 µM, first compound 0.3 µM)?
**A.** 16%

**Q.** And the viability, T/C (second compound 10 µM, first compound 0.949 µM)?
**A.** 5.42%

**Q.** What about the viability, T/C (second compound 10 µM, first compound 3 µM) of the same compound?
**A.** 1.91%

**Q.** What does the source list for `CC(=O)c1c(C)c2cnc(Nc3ccc(N4CCNCC4)cn3)nc2n(C2CCCC2)c1=O`?
**A.** viability, T/C (compound 0.000316 µM): 101% [middle of 4 runs]; viability, T/C (compound 0.001 µM): 103% [middle of 4 runs]; viability, T/C (compound 0.00316 µM): 104% [middle of 4 runs]; viability, T/C (compound 0.01 µM): 98.7% [middle of 4 runs]; viability, T/C (compound 0.0316 µM): 108% [middle of 4 runs]; viability, T/C (compound 0.1 µM): 105% [middle of 4 runs]; pIC50 (curve of compound): < 7.00
